Like-named read-outs stand apart in the source and are kept apart here.
Biological target: T1, EBP-Ig (N-terminal 225 amino acids of the human EPO receptor joined to an Ig heavy chain) (Homo sapiens, UniProt P19235)
T1 construct: Ig heavy chain (fusion partner); made in house; host or cells: NSO cells (secreted into conditioned media)
T1 sequence (P19235 25-250 limits assumed): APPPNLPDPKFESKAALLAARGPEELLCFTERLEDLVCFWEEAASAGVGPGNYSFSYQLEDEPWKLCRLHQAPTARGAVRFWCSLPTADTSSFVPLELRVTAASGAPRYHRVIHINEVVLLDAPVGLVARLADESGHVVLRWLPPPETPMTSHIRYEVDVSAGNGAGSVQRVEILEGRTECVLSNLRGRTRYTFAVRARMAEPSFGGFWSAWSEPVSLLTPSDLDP
Assay: Inhibition of [125I]EPO binding to immobilized EBP-Ig (EPO binding protein-Ig), scintillation Flash plate competition assay
Conditions: for IC30 μM (Inhibition of EPO binding to EBP-Ig) / IC50 / % inh @ 50 μM (Inhibition of EPO binding to EBP-Ig): 0.5 nM [125I]EPO; for IC30 μM (Inhibition of EPO binding to EBP-Ig): 0–500 μM test compound; for IC50: read-out: IC50, μM (Inhibition of EPO binding to EBP-Ig), concentration reducing corrected total binding to 50%; for % inh @ 50 μM (Inhibition of EPO binding to EBP-Ig): 50 μM test compound, average % inhibition

| SMILES | IC30 μM (Inhibition of EPO binding to EBP-Ig) [µM] | inhibition at 50 µM (read-out: % inh @ 50 μM (Inhibition of EPO binding to EBP-Ig)) [%] | inhibition at 50 µM (read-out: EPO/EBP-Ig % inh @ 50 μM, 50 μM compound, Table 10) [%] | IC50 [µM] | EPO/EBP-Ig % inh @ 50 μM (50 μM compound, Table 10) [%] | % inh @ 50 μM (Inhibition of EPO binding to EBP-Ig) [%] | EPO/EBP-Ig % inh @ 50 μM (50 μM compound, Table 9) [%] |
| --- | --- | --- | --- | --- | --- | --- | --- |
| COc1ccccc1CCNC(=O)C(CCCCN)N(CC=Cc1ccccc1)CC=Cc1ccccc1 (stereo not shown) [compound 224] | 25 | 51 | 51 | 50 | – | – | – |
| COc1ccc(CCNC(=O)C(CCCCN)N(C/C=C/c2ccccc2)C/C=C/c2ccccc2)cc1OC (stereo not shown) [compound 221] | 10 | – | – | 80 | 48 | 48 | – |
| COC(=O)C(CCCCNC(=O)OC(C)(C)C)N(C/C=C/c1ccc([N+](=O)[O-])cc1)C/C=C/c1ccc([N+](=O)[O-])cc1 (stereo not shown) [compound 178] | – | – | – | – | – | 36 | 36 |

Reference: patent US7153869B2, “Substituted amino acids as erythropoietin mimetics” (priority 1998, dated 2006)
